{"source": "patent EP4129284B1", "about": "“SERTACONAZOL FOR PROVIDING A SPORISTATIC AND/OR SPORICIDAL EFFECT” (Dr. Pfleger Arzneimittel GmbH, priority 2021, dated 2023)", "test_in_all_cases": "Microtiter plate laser nephelometry (MLN) growth test", "type_in_all_cases": "cell-based", "key": {"[1]": {"tested_on": "Trichophyton soudanense DSM 103786", "conditions": "DSM103786, T. soudanense; for MIC: plating of wells without visible growth in the MLN-test; for IC50: spore suspension in SGB, 37 °C, 120 h, growth as area under curve vs untreated control", "experimental": "(§1) To allow a reasonable comparison between antimycotic drugs, the concentrations to be used in the following tests was determined first. Thus, the antimycotic effect was determined by microtiter plate laser nephelometry (MLN).\n(§2) MLN is a direct method for measuring light, which is scattered by particles suspended in a solution in angles of up to 90 degree. With this technique, already minor particle concentrations can be determined in a suspension. Thus, this method provides a higher sensitivity than usual transmission readers, which detect the reduction of the intensity of light passing a suspension. Further, it is a very reliable technique for application in a 96-well format. It can be used to monitor the growth of microorganisms by the turbidity of the respective medium and to examine the effect of antimicrobial substances on the growth of microorganisms. Compared to other applied methods, MLN allows high throughput screenings, incubation over a long time and in situ monitoring of changes in the dose-response-curves.\n(§3) Moreover, in most techniques, the minimum inhibitory concentration (MIC) can only be determined afterwards, whereas MLN allows the in situ acquisition of dose-response-curves and the simultaneous monitoring of changes in the IC50.\n(§4) Candida albicans DSM 1386, Candida parapsilosis DSM 5784, Trichophyton rubrum DSM 16111,Trichophyton interdigitale IHEM 22939, Trichophyton soudanense DSM 103786, and Trichophyton mentagrophytes DSM 107608 were obtained from the DSMZ (German Collection of Microorganisms and Cell Cultures; Deutsche Sammlung von Mikroorganismen und Zellkulturen). Epidermophyton floccosum and Scorpolariopsis brevicaulis were obtained from a round robin test.\n(§5) The yeasts were cultivated in Sabouraud-Glucose-Bouillon (SGB; Merck) for 24 h at 37°C at aerobic conditions. Dermatophytes were cultivated on Dermasel-Agarplates (Oxoid) for 3 weeks and subsequently treated with 5 mL sterile, physiological saline solution (Lot 14HD24, Fresenius Kabi Deutschland GmbH) for detaching the spores. The spore suspensions were transferred into sterile 50-ml-tubes (Greiner Bio-One), vortexed for 20 s and separated by cell sieves (40 µm, Greiner Bio-One). Subsequently, the spore number was determined via Neubauer-improved counting chambers and the spore suspension was adjusted to approximately 2 × 10^3/ml in SBG (Merck) for the MLN-experiments.\n(§6) Solutions of sertaconazol, ciclopiroxolamin and terbinafin were prepared as 10 µg/µL DMSO (Sigma-Aldrich). The respective test concentrations were then obtained by diluting these solutions in SGB (Merck).\n(§7) The MLN-test was then performed according to NCCLS M27-A2 and DIN EN 27027 as previously described (Burmester A, Hipler UC, Uhrlaß S, Nenoff P, Singal A, Verma SB, Elsner P, Wiegand C. Indian Trichophyton mentagrophytes squalene epoxidase erg1 double mutants show high proportion of combined fluconazole and terbinafine resistance. Mycoses. 2020; doi: 10.111 1/myc.13150). […] of the respective dilutions of sertaconazol, ciclopiroxolamin or terbinafin were added to the respective wells of a sterile, clear 96-well microplate (Greiner Bio-One) in quadruplicates together with 100 µL of the microorganism suspensions (as above). Blanks for each analysed substance concentration were added to each assay. The microtiter plates were sealed with a transparent foil (Greiner Bio-One). To allow the gas exchange, a perforation was applied to the right edge of the respective wells. The microtiter plates were then inserted in the microtiter plate laser nephelometer (NEPH-ELOstar Galaxy, BMG Labtech) and incubated at 37 °C while shaking for 48 h (yeasts) or, respectively, 120 h (mold, dermatophytes). For determining the growth of the microorganisms, the turbidity of each analysed substrate concentration was assigned to the incubation time. Subsequently, the area under curve was determined by the results and calculated as percentage of the untreated control (growth [%]). […]"}, "[2]": {"tested_on": "Trichophyton rubrum DSM 16111", "conditions": "DSM16111, T. rubrum; for MIC: plating of wells without visible growth in the MLN-test; for IC50: spore suspension in SGB, 37 °C, 120 h, growth as area under curve vs untreated control", "experimental": "as §1, §2, §3, §4, §5, §6, §7"}, "[3]": {"tested_on": "Trichophyton interdigitale IHEM 22939", "conditions": "IHEM22939, T. interdigitale; for MIC: plating of wells without visible growth in the MLN-test; for IC50: spore suspension in SGB, 37 °C, 120 h, growth as area under curve vs untreated control", "experimental": "as §1, §2, §3, §4, §5, §6, §7"}, "[4]": {"tested_on": "Candida parapsilosis DSM 5784", "conditions": "Lodderomyces parapsilosis, DSM5784; for IC50: C. parapsilosis (yeast), SGB, 37 °C, 48 h, growth as area under curve vs untreated control; for MIC: C. parapsilosis, plating of wells without visible growth in the MLN-test", "experimental": "as §1, §2, §3, §4, §5, §6, §7"}, "S. brevicaulis": {"tested_on": "S. brevicaulis", "conditions": "Scopulariopsis brevicaulis; for IC50: S. brevicaulis (mold), SGB, 37 °C, 120 h, growth as area under curve vs untreated control; for MIC: S. brevicaulis, plating of wells without visible growth in the MLN-test", "experimental": "as §1, §2, §3, §4, §5, §6, §7"}, "Epidermophyton floccosum": {"tested_on": "Epidermophyton floccosum", "conditions": "E. floccosum; for MIC: plating of wells without visible growth in the MLN-test; for IC50: spore suspension in SGB, 37 °C, 120 h, growth as area under curve vs untreated control", "experimental": "as §1, §2, §3, §4, §5, §6, §7"}, "[5]": {"tested_on": "Candida albicans DSM 1386", "conditions": "for IC50: DSM1386, C. albicans (yeast), SGB, 37 °C, 48 h, growth as area under curve vs untreated control; for MIC: DSM1386, C. albicans, plating of wells without visible growth in the MLN-test", "experimental": "as §1, §2, §3, §4, §5, §6, §7"}, "[6]": {"tested_on": "Trichophyton mentagrophytes DSM 107608", "conditions": "DSM107608, T. mentagrophytes; for MIC: plating of wells without visible growth in the MLN-test; for IC50: spore suspension in SGB, 37 °C, 120 h, growth as area under curve vs untreated control", "experimental": "as §1, §2, §3, §4, §5, §6, §7"}}, "data": [{"smiles": "Cc1cc(C2CCCCC2)n(O)c(=O)c1", "note": "[Ciclopiroxolamin, ciclopiroxolamin]", "values": [{"measurement": "MIC", "setting": "[1]", "value": 5.5, "unit": "µg/mL"}, {"measurement": "IC50", "setting": "[1]", "value": "1.43 ± 0.78", "unit": "µg/mL"}, {"measurement": "MIC", "setting": "[2]", "value": 10, "unit": "µg/mL"}, {"measurement": "IC50", "setting": "[2]", "value": "1.02 ± 0.22", "unit": "µg/mL"}, {"measurement": "MIC", "setting": "[3]", "value": 10, "unit": "µg/mL"}, {"measurement": "IC50", "setting": "[3]", "value": "2.62 ± 0.62", "unit": "µg/mL"}, {"measurement": "IC50", "setting": "[4]", "value": "4.73 ± 0.09", "unit": "µg/mL"}, {"measurement": "MIC", "setting": "[4]", "value": 80, "unit": "µg/mL"}, {"measurement": "IC50", "setting": "S. brevicaulis", "value": "4.85 ± 1.79", "unit": "µg/mL"}, {"measurement": "MIC", "setting": "S. brevicaulis", "value": 60, "unit": "µg/mL"}, {"measurement": "MIC", "setting": "Epidermophyton floccosum", "value": 7.5, "unit": "µg/mL"}, {"measurement": "IC50", "setting": "Epidermophyton floccosum", "value": "1.46 ± 0.22", "unit": "µg/mL"}, {"measurement": "IC50", "setting": "[5]", "value": "4.01 ± 0.71", "unit": "µg/mL"}, {"measurement": "MIC", "setting": "[5]", "value": 40, "unit": "µg/mL"}, {"measurement": "MIC", "setting": "[6]", "value": 10, "unit": "µg/mL"}, {"measurement": "IC50", "setting": "[6]", "value": "2.09 ± 0.78", "unit": "µg/mL"}]}, {"smiles": "Clc1ccc(C(Cn2ccnc2)OCc2csc3c(Cl)cccc23)c(Cl)c1", "note": "(centres unmarked) [Sertaconazol, sertaconazol]", "values": [{"measurement": "MIC", "setting": "[1]", "value": 3.1, "unit": "µg/mL"}, {"measurement": "IC50", "setting": "[1]", "value": "0.0014 ± 0.0001", "unit": "µg/mL"}, {"measurement": "MIC", "setting": "[2]", "value": 1.3, "unit": "µg/mL"}, {"measurement": "IC50", "setting": "[2]", "value": "0.0028 ± 0.0003", "unit": "µg/mL"}, {"measurement": "MIC", "setting": "[3]", "value": 12.5, "unit": "µg/mL"}, {"measurement": "IC50", "setting": "[3]", "value": "0.39 ± 0.01", "unit": "µg/mL"}, {"measurement": "IC50", "setting": "[4]", "value": "0.0025 ± 0.0001", "unit": "µg/mL"}, {"measurement": "MIC", "setting": "[4]", "value": 20, "unit": "µg/mL"}, {"measurement": "IC50", "setting": "S. brevicaulis", "value": "0.11 ± 0.03", "unit": "µg/mL"}, {"measurement": "MIC", "setting": "S. brevicaulis", "value": 7.5, "unit": "µg/mL"}, {"measurement": "MIC", "setting": "Epidermophyton floccosum", "value": 1.6, "unit": "µg/mL"}, {"measurement": "IC50", "setting": "Epidermophyton floccosum", "value": "0.022 ± 0.003", "unit": "µg/mL"}, {"measurement": "IC50", "setting": "[5]", "value": "0.54 ± 0.12", "unit": "µg/mL"}, {"measurement": "MIC", "setting": "[5]", "value": 40, "unit": "µg/mL"}, {"measurement": "MIC", "setting": "[6]", "value": 3.8, "unit": "µg/mL"}, {"measurement": "IC50", "setting": "[6]", "value": "0.018 ± 0.003", "unit": "µg/mL"}]}, {"smiles": "CN(C/C=C/C#CC(C)(C)C)Cc1cccc2ccccc12", "note": "[Terbinafin, terbinafin]", "values": [{"measurement": "MIC", "setting": "[1]", "value": 0.015, "unit": "µg/mL"}, {"measurement": "IC50", "setting": "[1]", "value": "0.0016 ± 0.0005", "unit": "µg/mL"}, {"measurement": "MIC", "setting": "[2]", "value": 0.006, "unit": "µg/mL"}, {"measurement": "IC50", "setting": "[2]", "value": "0.0015 ± 0.0002", "unit": "µg/mL"}, {"measurement": "MIC", "setting": "[3]", "value": 0.02, "unit": "µg/mL"}, {"measurement": "IC50", "setting": "[3]", "value": "0.0038 ± 0.0008", "unit": "µg/mL"}, {"measurement": "IC50", "setting": "[4]", "value": "0.098 ± 0.002", "unit": "µg/mL"}, {"measurement": "MIC", "setting": "[4]", "value": 3.8, "unit": "µg/mL"}, {"measurement": "IC50", "setting": "S. brevicaulis", "value": "0.69 ± 0.03", "unit": "µg/mL"}, {"measurement": "MIC", "setting": "S. brevicaulis", "value": 40, "unit": "µg/mL"}, {"measurement": "MIC", "setting": "Epidermophyton floccosum", "value": 0.02, "unit": "µg/mL"}, {"measurement": "IC50", "setting": "Epidermophyton floccosum", "value": "0.0021 ± 0.0001", "unit": "µg/mL"}, {"measurement": "IC50", "setting": "[5]", "value": "24.2 ± 2.99", "unit": "µg/mL"}, {"measurement": "MIC", "setting": "[6]", "value": 20, "unit": "µg/mL"}, {"measurement": "IC50", "setting": "[6]", "value": "4.66 ± 0.04", "unit": "µg/mL"}]}]}
